From the NIST ThermoML archive (doi:10.1021/acs.jced.7b00221)

Test: xn = mol fraction of the nth substance listed
Conditions: 100 kPa, Liquid; for viscosity: Cone and plate viscometry; for mass density: Vibrating tube method

CCCCCCCC[P+](CC)(CC)CC.O=[N+]([O-])c1cn[n-]c1 [triethyloctylphosphonium 4-nitropyrazolide] + CCCCCCn1cc[n+](C)c1C.O=S(=O)([N-]S(=O)(=O)C(F)(F)F)C(F)(F)F
Conditions | mass density [kg/m3] | viscosity [mPa·s]
278.15 K, x1 = 0.124 | – | 602
278.15 K, x1 = 0.25 | – | 771
278.15 K, x1 = 0.401 | – | 1011
278.15 K, x1 = 0.5 | – | 1156
278.15 K, x1 = 0.6 | – | 1244
278.15 K, x1 = 0.751 | – | 1382
278.15 K, x1 = 0.9 | – | 1386
283.15 K, x1 = 0.124 | 1331.5 | 409
283.15 K, x1 = 0.25 | 1290 | 510
283.15 K, x1 = 0.401 | – | 658
283.15 K, x1 = 0.5 | 1206.7 | 742
283.15 K, x1 = 0.6 | – | 795
283.15 K, x1 = 0.751 | 1123.8 | 883
283.15 K, x1 = 0.9 | 1074.2 | 890
283.15 K, x1 = 1 | 1040.7 | –
288.15 K, x1 = 0.124 | 1327.1 | 283
288.15 K, x1 = 0.25 | 1285.9 | 348
288.15 K, x1 = 0.401 | – | 442
288.15 K, x1 = 0.5 | 1203 | 491
288.15 K, x1 = 0.6 | – | 524
288.15 K, x1 = 0.751 | 1120.4 | 580
288.15 K, x1 = 0.9 | 1071 | 589
288.15 K, x1 = 1 | 1037.7 | –
293.15 K, x1 = 0.124 | 1322.8 | 204
293.15 K, x1 = 0.25 | 1281.8 | 246
293.15 K, x1 = 0.401 | – | 307
293.15 K, x1 = 0.5 | 1199.2 | 338
293.15 K, x1 = 0.6 | – | 359
293.15 K, x1 = 0.751 | 1117 | 396
293.15 K, x1 = 0.9 | 1067.8 | 404
293.15 K, x1 = 1 | 1034.6 | –
295.15 K, x1 = 0.124 | 1321 | –
295.15 K, x1 = 0.25 | 1280.1 | –
295.15 K, x1 = 0.5 | 1197.7 | –
295.15 K, x1 = 0.751 | 1115.6 | –
295.15 K, x1 = 0.9 | 1066.5 | –
295.15 K, x1 = 1 | 1033.4 | –
298.15 K, x1 = 0.124 | 1318.5 | 151
298.15 K, x1 = 0.25 | 1277.6 | 179
298.15 K, x1 = 0.401 | – | 220
298.15 K, x1 = 0.5 | 1195.5 | 241
298.15 K, x1 = 0.6 | – | 254
298.15 K, x1 = 0.751 | 1113.6 | 279
298.15 K, x1 = 0.9 | 1064.6 | 285
298.15 K, x1 = 1 | 1031.5 | –
303.15 K, x1 = 0.124 | 1314.3 | 115
303.15 K, x1 = 0.25 | 1273.7 | 135
303.15 K, x1 = 0.401 | – | 163
303.15 K, x1 = 0.5 | 1191.8 | 177
303.15 K, x1 = 0.6 | – | 185
303.15 K, x1 = 0.751 | 1110.2 | 203
303.15 K, x1 = 0.9 | 1061.4 | 208
303.15 K, x1 = 1 | 1028.5 | –
308.15 K, x1 = 0.124 | 1310.1 | 90
308.15 K, x1 = 0.25 | 1269.7 | 104
308.15 K, x1 = 0.401 | – | 124
308.15 K, x1 = 0.5 | 1188.1 | 134
308.15 K, x1 = 0.6 | – | 139
308.15 K, x1 = 0.751 | 1106.9 | 152
308.15 K, x1 = 0.9 | 1058.3 | 156
308.15 K, x1 = 1 | 1025.5 | –
313.15 K, x1 = 0.124 | 1306 | 72
313.15 K, x1 = 0.25 | 1265.7 | 82
313.15 K, x1 = 0.401 | – | 97
313.15 K, x1 = 0.5 | 1184.5 | 103
313.15 K, x1 = 0.6 | – | 106
313.15 K, x1 = 0.751 | 1103.7 | 117
313.15 K, x1 = 0.9 | 1055.3 | 119
313.15 K, x1 = 1 | 1022.6 | –
318.15 K, x1 = 0.124 | 1301.8 | 58
318.15 K, x1 = 0.25 | 1261.7 | 65
318.15 K, x1 = 0.401 | – | 77
318.15 K, x1 = 0.5 | 1180.9 | 82
318.15 K, x1 = 0.6 | – | 83
318.15 K, x1 = 0.751 | 1100.4 | 91
318.15 K, x1 = 0.9 | 1052.2 | 94
318.15 K, x1 = 1 | 1019.6 | –
323.15 K, x1 = 0.124 | 1297.6 | –
323.15 K, x1 = 0.25 | 1257.7 | 53
323.15 K, x1 = 0.401 | – | 63
323.15 K, x1 = 0.5 | 1177.3 | 66
323.15 K, x1 = 0.6 | – | 67
323.15 K, x1 = 0.751 | 1097.1 | 73
323.15 K, x1 = 0.9 | 1049.1 | 75
323.15 K, x1 = 1 | 1016.7 | –
328.15 K, x1 = 0.124 | 1293.5 | –
328.15 K, x1 = 0.25 | 1253.8 | –
328.15 K, x1 = 0.5 | 1173.7 | –
328.15 K, x1 = 0.751 | 1093.9 | –
328.15 K, x1 = 0.9 | 1046.1 | –
328.15 K, x1 = 1 | 1013.8 | –
333.15 K, x1 = 0.124 | 1289.3 | –
333.15 K, x1 = 0.25 | 1249.8 | –
333.15 K, x1 = 0.5 | 1170.2 | –
333.15 K, x1 = 0.751 | 1090.6 | –
333.15 K, x1 = 0.9 | 1043 | –
333.15 K, x1 = 1 | 1010.8 | –
338.15 K, x1 = 0.124 | 1285.1 | –
338.15 K, x1 = 0.25 | 1245.8 | –
338.15 K, x1 = 0.5 | 1166.6 | –
338.15 K, x1 = 0.751 | 1087.4 | –
338.15 K, x1 = 0.9 | 1040 | –
338.15 K, x1 = 1 | 1007.9 | –
343.15 K, x1 = 0.124 | 1281 | –
343.15 K, x1 = 0.25 | 1241.9 | –
343.15 K, x1 = 0.5 | 1163 | –
343.15 K, x1 = 0.751 | 1084.1 | –
343.15 K, x1 = 0.9 | 1036.9 | –
343.15 K, x1 = 1 | 1005 | –
348.15 K, x1 = 0.124 | 1276.9 | –
348.15 K, x1 = 0.25 | 1237.9 | –
348.15 K, x1 = 0.5 | 1159.5 | –
348.15 K, x1 = 0.751 | 1080.9 | –
348.15 K, x1 = 0.9 | 1033.9 | –
348.15 K, x1 = 1 | 1002.1 | –
353.15 K, x1 = 0.124 | 1272.7 | –
353.15 K, x1 = 0.25 | 1234 | –
353.15 K, x1 = 0.5 | 1155.9 | –
353.15 K, x1 = 0.751 | 1077.7 | –
353.15 K, x1 = 0.9 | 1030.9 | –
353.15 K, x1 = 1 | 999.2 | –
